Results as given in patent US11234919B2, “Compound produced by means of marine microorganism and composition for improving skin wrinkles, enhancing elasticity and skin whitening comprising same compound as active ingredient” (KOREA INSTITUTE OF OCEAN SCIENCE & TECHNOLOGY, priority 2017, dated 2022).

Legend:
B-16 melanoma cells = assay: Melanogenesis inhibition in B-16 melanoma cell culture; assay type: cell-based; conditions: for Amount of melanin produced: absorbance at 400 nm per 10^6 cells, incubation 3 days
Experimental: The compounds shown in Table 1 were set to have final concentrations of 2 ppm and 20 ppm, and each of the compounds was added to a culture medium of B-16 melanoma cells, followed by incubation for 3 days. Thereafter, the cells were treated with trypsin, detached from the incubator, and centrifuged, and then melanin was extracted therefrom. The melanin was dissolved by addition of 1 mL of a sodium hydroxide solution (1 N) and boiling for 10 min, and then the absorbance was measured at 400 nm using a spectrometer, thereby determining the amount of melanin produced. The amount of melanin was measured as an absorbance per unit cell count (10^6 cells), and the amount of melanin production relative to the control with nothing added was calculated as an inhibition (%). The test was repeated three times.
To compare melanogenesis inhibiting activity of the compounds according to the present disclosure, 20 ppm arbutin was also tested by the same method, and the results are also shown in Table 3.

[1] = tested on: human-derived fibroblasts; assay: Increase in collagen synthesis, PICP EIA kit, human fibroblast culture; assay type: cell-based; conditions: final concentration 20 ppm, incubation one day; for Amount of collagen production: amount of collagen production as absorbance at 450 nm; for Collagen increase (%): ratio of collagen production relative to control
Experimental: Out of the compounds represented by Formula 2, the compounds according to the present disclosure shown in Table 1 were tested for collagen synthesis stimulating activity by addition to cultures of human-derived fibroblasts.
The measurement of synthesized collagen was conducted by quantification using a procollagen type I C-peptide enzyme immunoassay kit (PICP EIA kit).
Collagen synthetic ability was evaluated by selecting the concentrations causing no toxicity on the basis of cytotoxicity results.
In the test, the final concentration of the compounds of the present disclosure was set to 20 ppm. Each sample was added to the culture medium of human fibroblasts, followed by incubation for one day, and then the culture was taken out, and the degree of collagen synthesis was measured at each concentration through the PICP EIA kit by using a spectrometer at 450 nm. For comparison of effects, the degree of collagen synthesis was measured by the same method on a culture medium of fibroblasts with nothing added (control) and a sample with vitamin C added to a final concentration of 20 ppm. The amount of collagen production was measured as a UV absorbance, and the rate of increase in collagen production was calculated as a ratio of collagen production relative to the collagen production of the control.

[2] = melanin production relative to control with nothing added, final concentration 2 ppm, 3 days
[3] = melanin production relative to control with nothing added, final concentration 20 ppm, 3 days

SMILES: OC[C@H]1O[C@@H](Oc2ccc(O)cc2)[C@H](O)[C@@H](O)[C@@H]1O [Arbutin, arbutin, reference compound]
- inhibition at 20 ppm (B-16 melanoma cells; Mus musculus, B16, 72 h, melanin production relative to control with nothing added, final concentration 20 ppm, 3 days): 6.5%
- Amount of melanin produced (B-16 melanoma cells; final concentration 20 ppm): 0.056 ± 0.001

SMILES: C=C(C)c1cc(O)cc(=O)o1 [Compound 1]
- Amount of collagen production [1]: 287.65
- Collagen increase (%) [1]: 152.2%
- Amount of melanin produced (B-16 melanoma cells; final concentration 2 ppm): 0.047 ± 0.001
- Amount of melanin produced (B-16 melanoma cells; final concentration 20 ppm): 0.046 ± 0.001
- Inhibition (%) (B-16 melanoma cells; [2]): 21.8%
- Inhibition (%) (B-16 melanoma cells; [3]): 23.5%

SMILES: C/C=C(\C)c1oc(=O)c(C)c(O)c1C [Compound 2]
- Amount of collagen production [1]: 287.24
- Collagen increase (%) [1]: 147.2%
- Amount of melanin produced (B-16 melanoma cells; final concentration 2 ppm): 0.048 ± 0.001
- Amount of melanin produced (B-16 melanoma cells; final concentration 20 ppm): 0.046 ± 0.001
- Inhibition (%) (B-16 melanoma cells; [2]): 20.0%
- Inhibition (%) (B-16 melanoma cells; [3]): 23.5%

SMILES: CC/C=C(\C)c1oc(=O)c(CC)c(O)c1CC [Compound 3]
- Amount of collagen production [1]: 287.24
- Collagen increase (%) [1]: 147.2%
- Amount of melanin produced (B-16 melanoma cells; final concentration 2 ppm): 0.048 ± 0.001
- Amount of melanin produced (B-16 melanoma cells; final concentration 20 ppm): 0.047 ± 0.001
- Inhibition (%) (B-16 melanoma cells; [2]): 20.0%
- Inhibition (%) (B-16 melanoma cells; [3]): 21.8%

SMILES: C=C(C)c1oc(=O)cc(O)c1C(=O)O [Compound 4]
- Amount of collagen production [1]: 287.61
- Collagen increase (%) [1]: 152.1%
- Amount of melanin produced (B-16 melanoma cells; final concentration 2 ppm): 0.048 ± 0.001
- Amount of melanin produced (B-16 melanoma cells; final concentration 20 ppm): 0.046 ± 0.001
- Inhibition (%) (B-16 melanoma cells; [2]): 20.0%
- Inhibition (%) (B-16 melanoma cells; [3]): 23.5%

SMILES: C/C=C(\C)c1oc(=O)c(C)cc1C [Compound 5]
- Amount of collagen production [1]: 287.65
- Collagen increase (%) [1]: 152.2%
- Amount of melanin produced (B-16 melanoma cells; final concentration 2 ppm): 0.049 ± 0.001
- Amount of melanin produced (B-16 melanoma cells; final concentration 20 ppm): 0.047 ± 0.001
- Inhibition (%) (B-16 melanoma cells; [2]): 18.3%
- Inhibition (%) (B-16 melanoma cells; [3]): 21.8%

SMILES: C/C(=C\CO)c1cc(O)cc(=O)o1 [Compound 6]
- Amount of collagen production [1]: 287.61
- Collagen increase (%) [1]: 152.1%
- Amount of melanin produced (B-16 melanoma cells; final concentration 2 ppm): 0.048 ± 0.001
- Amount of melanin produced (B-16 melanoma cells; final concentration 20 ppm): 0.046 ± 0.001
- Inhibition (%) (B-16 melanoma cells; [2]): 18.3%
- Inhibition (%) (B-16 melanoma cells; [3]): 23.5%

SMILES: CCc1c(C)c(C(=O)O)c(/C(C)=C/CO)oc1=O [Compound 9]
- Amount of collagen production [1]: 287.61
- Collagen increase (%) [1]: 152.1%
- Amount of melanin produced (B-16 melanoma cells; final concentration 2 ppm): 0.049 ± 0.001
- Amount of melanin produced (B-16 melanoma cells; final concentration 20 ppm): 0.047 ± 0.001
- Inhibition (%) (B-16 melanoma cells; [2]): 18.3%
- Inhibition (%) (B-16 melanoma cells; [3]): 21.8%

SMILES: CC/C=C(\C)c1oc(=O)c(CC)c(C)c1CC [Compound 10]
- Amount of collagen production [1]: 287.24
- Collagen increase (%) [1]: 147.2%
- Amount of melanin produced (B-16 melanoma cells; final concentration 2 ppm): 0.049 ± 0.001
- Amount of melanin produced (B-16 melanoma cells; final concentration 20 ppm): 0.047 ± 0.001
- Inhibition (%) (B-16 melanoma cells; [2]): 18.3%
- Inhibition (%) (B-16 melanoma cells; [3]): 21.8%

SMILES: O=C1O[C@H]([C@@H](O)CO)C(O)=C1O [Vitamin C, vitamin C, reference compound]
- Amount of collagen production [1]: 217.35
- Collagen increase (%) [1]: 115.3%
